# Experimental data reported in ChEMBL document CHEMBL1909046, “DrugMatrix in vitro pharmacology data”.
# Key:
# [1] = DRUGMATRIX: Glutamate, AMPA radioligand binding (ligand: [3H] AMPA); assay type: cell membranes, Rattus norvegicus, Wistar, Cerebral cortex, Membrane; settings: Not Active = under 50% inhibition at 10 µM
# Cytochrome P450 3A4 = Cytochrome P450 3A4 (Homo sapiens, UniProt P08684); settings: bti-tn-5b1-4; note: in other assays of this panel Not Active means under 50% inhibition at 10 µM
# Caspase-1 = molecular target: T1, Caspase-1 (Homo sapiens, UniProt P29466); parameters: species or system Escherichia coli;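 note: Caspase-1 enzyme inhibition assay with a peptide substrate; in other assays of this panel Not Active means under 50% inhibition at 10 µM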
# T1 sequence (P29466 whole entry): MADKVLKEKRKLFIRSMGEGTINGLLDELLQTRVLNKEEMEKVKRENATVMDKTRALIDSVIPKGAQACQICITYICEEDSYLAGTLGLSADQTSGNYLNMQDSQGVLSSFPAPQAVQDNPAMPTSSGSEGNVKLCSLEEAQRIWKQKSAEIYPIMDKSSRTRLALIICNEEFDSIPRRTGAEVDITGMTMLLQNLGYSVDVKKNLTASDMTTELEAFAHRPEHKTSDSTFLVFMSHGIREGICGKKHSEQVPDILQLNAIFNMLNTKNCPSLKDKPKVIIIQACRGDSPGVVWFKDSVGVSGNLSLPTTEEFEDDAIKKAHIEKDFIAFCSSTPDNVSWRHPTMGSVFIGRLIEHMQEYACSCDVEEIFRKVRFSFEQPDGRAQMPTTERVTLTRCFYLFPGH
# [2] = DRUGMATRIX: Sodium/nucleoside co-transporter radioligand binding (ligand: nitrobenzylthioinosine); assay type: cell membranes, Cavia porcellus, Dunkin-Hartley, Cerebral cortex, Membrane; settings: Not Active = under 50% inhibition at 10 µM
# [3] = molecular target: Sodium-dependent noradrenaline transporter (Homo sapiens, UniProt P23975); assay: DRUGMATRIX: Norepinephrine Transporter radioligand binding (ligand: [125I] RTI-55); assay type: cell membranes, MDCK, Membrane; settings: Not Active = under 50% inhibition at 10 µM
# [4] = molecular target: T2, Muscarinic acetylcholine receptor M5 (Homo sapiens, UniProt P08912); assay type: cell membranes, CHO-K1, Membrane; settings: cho-k1; note: in other assays of this panel Not Active means under 50% inhibition at 10 µM
# T2 sequence (P08912 whole entry): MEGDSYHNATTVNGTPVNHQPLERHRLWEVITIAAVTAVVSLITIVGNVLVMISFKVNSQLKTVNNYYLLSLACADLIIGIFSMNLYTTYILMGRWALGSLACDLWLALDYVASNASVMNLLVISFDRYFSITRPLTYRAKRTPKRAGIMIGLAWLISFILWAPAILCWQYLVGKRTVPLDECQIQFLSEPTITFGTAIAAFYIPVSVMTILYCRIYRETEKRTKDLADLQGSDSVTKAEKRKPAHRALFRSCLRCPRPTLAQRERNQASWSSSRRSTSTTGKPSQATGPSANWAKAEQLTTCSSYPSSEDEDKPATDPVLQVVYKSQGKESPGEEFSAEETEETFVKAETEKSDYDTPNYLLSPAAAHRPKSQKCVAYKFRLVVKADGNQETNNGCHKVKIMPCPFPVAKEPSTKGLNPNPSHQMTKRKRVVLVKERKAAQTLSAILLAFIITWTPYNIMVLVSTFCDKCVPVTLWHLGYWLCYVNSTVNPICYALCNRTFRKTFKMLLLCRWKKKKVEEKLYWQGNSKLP
# [5] = molecular target: T3, Neuropeptide Y receptor type 2 (Homo sapiens, UniProt P49146); assay type: cell membranes, Membrane; settings: kan-ts; note: in other assays of this panel Not Active means under 50% inhibition at 10 µM
# T3 sequence (P49146 whole entry): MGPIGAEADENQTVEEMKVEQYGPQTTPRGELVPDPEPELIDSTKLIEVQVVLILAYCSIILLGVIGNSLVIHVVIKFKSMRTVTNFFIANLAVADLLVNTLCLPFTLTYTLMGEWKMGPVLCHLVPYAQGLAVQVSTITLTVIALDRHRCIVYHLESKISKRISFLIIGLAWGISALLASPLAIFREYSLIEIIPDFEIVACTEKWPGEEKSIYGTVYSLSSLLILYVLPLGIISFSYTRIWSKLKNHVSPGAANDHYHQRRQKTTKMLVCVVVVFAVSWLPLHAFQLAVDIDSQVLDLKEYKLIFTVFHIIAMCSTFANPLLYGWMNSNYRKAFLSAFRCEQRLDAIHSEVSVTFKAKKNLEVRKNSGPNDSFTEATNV
# Cytochrome P450 3A4, sequence (P08684 whole entry): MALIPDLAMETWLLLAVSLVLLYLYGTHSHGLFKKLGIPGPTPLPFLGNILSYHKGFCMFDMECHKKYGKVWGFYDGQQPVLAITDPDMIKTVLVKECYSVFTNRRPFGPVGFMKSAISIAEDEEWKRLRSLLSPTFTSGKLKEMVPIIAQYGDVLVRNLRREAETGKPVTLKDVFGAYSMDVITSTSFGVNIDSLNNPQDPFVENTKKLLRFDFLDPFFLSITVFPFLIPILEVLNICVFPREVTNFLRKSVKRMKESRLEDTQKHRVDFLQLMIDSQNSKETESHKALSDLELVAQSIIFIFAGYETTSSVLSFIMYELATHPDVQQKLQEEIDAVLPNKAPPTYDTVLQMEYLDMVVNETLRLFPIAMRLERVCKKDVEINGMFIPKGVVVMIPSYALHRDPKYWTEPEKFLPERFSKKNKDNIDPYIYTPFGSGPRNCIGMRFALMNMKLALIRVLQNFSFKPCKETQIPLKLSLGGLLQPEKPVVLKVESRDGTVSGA
# Sodium-dependent noradrenaline transporter, sequence (P23975 whole entry): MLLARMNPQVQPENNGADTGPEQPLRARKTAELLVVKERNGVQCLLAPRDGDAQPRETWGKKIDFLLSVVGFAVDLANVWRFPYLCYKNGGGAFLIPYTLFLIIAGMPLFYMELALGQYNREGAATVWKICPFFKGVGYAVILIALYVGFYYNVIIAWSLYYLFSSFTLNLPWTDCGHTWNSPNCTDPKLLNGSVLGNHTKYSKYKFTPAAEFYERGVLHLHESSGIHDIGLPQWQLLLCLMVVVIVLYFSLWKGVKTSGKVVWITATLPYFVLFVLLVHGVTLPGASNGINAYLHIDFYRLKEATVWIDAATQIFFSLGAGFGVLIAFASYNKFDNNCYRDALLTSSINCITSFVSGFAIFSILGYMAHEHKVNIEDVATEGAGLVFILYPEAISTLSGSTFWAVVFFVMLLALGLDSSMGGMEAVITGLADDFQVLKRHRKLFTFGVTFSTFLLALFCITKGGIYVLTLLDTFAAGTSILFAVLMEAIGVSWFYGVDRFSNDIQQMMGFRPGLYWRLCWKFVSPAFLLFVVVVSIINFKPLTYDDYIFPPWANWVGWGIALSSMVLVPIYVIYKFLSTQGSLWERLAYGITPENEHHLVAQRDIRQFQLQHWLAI
SMILES,IC50 [1],Ki [1],IC50 (Cytochrome P450 3A4),Ki (Cytochrome P450 3A4),IC50 (Caspase-1),IC50 [2],Ki [2],IC50 ([3]; mdck),IC50 [4],IC50 [5],Ki (Caspase-1),Ki ([3]; mdck),Ki [4],Ki [5],IC50 ([3]; read-out: IC50),Ki ([3]; read-out: Ki)
CC[C@@]1(O)C[C@H](O[C@H]2C[C@H](N(C)C)[C@H](O[C@H]3C[C@H](O)[C@H](O[C@H]4CCC(=O)[C@H](C)O4)[C@H](C)O3)[C@H](C)O2)c2c(cc3c(c2O)C(=O)c2c(O)cccc2C3=O)[C@H]1C(=O)OC [ACLARUBICIN],Not Active,Not Active,Not Active,Not Active,Not Active,Not Active,Not Active,Not Active,Not Active,Not Active,–,–,–,–,–,–
Nc1nc2c(ncn2COCCO)c(=O)[nH]1 [ACYCLOVIR],Not Active,Not Active,Not Active,Not Active,Not Active,Not Active,Not Active,Not Active,Not Active,Not Active,–,–,–,–,–,–
Cc1c(C)c2c(c(C)c1O)CC[C@@](C)(CCC[C@H](C)CCC[C@H](C)CCCC(C)C)O2 [ALPHA-TOCOPHEROL],Not Active,Not Active,Not Active,Not Active,Not Active,Not Active,Not Active,Not Active,Not Active,Not Active,–,–,–,–,–,–
NCCCCCC(=O)O [AMINOCAPROIC ACID],Not Active,Not Active,Not Active,Not Active,Not Active,Not Active,Not Active,Not Active,Not Active,Not Active,–,–,–,–,–,–
CCC1(c2ccc(N)cc2)CCC(=O)NC1=O (stereo unspecified) [AMINOGLUTETHIMIDE],Not Active,Not Active,Not Active,Not Active,Not Active,Not Active,Not Active,Not Active,Not Active,Not Active,–,–,–,–,–,–
Cc1ccc(/N=C/N(C)/C=N/c2ccc(C)cc2C)c(C)c1 [AMITRAZ],Not Active,Not Active,Not Active,Not Active,Not Active,Not Active,Not Active,Not Active,Not Active,Not Active,–,–,–,–,–,–
CCOC(=O)C1=C(COCCN)NC(C)=C(C(=O)OC)C1c1ccccc1Cl (stereo unspecified) [AMLODIPINE],Not Active,Not Active,Not Active,Not Active,Not Active,Not Active,Not Active,Not Active,Not Active,Not Active,–,–,–,–,–,–
COc1ccc(C[C@H]2NC[C@H](O)[C@H]2OC(C)=O)cc1 [ANISOMYCIN],Not Active,Not Active,Not Active,Not Active,Not Active,Not Active,Not Active,Not Active,Not Active,Not Active,Not Active,Not Active,Not Active,Not Active,–,–
Nc1ncn([C@@H]2O[C@H](CO)[C@@H](O)[C@H]2O)c(=O)n1 [AZACITIDINE],Not Active,Not Active,Not Active,Not Active,Not Active,Not Active,Not Active,Not Active,Not Active,Not Active,–,–,–,–,–,–
CN(C)C(=O)Oc1cc(OC(=O)N(C)C)cc(C(O)CNC(C)(C)C)c1 (stereo unspecified) [BAMBUTEROL],Not Active,Not Active,Not Active,Not Active,Not Active,Not Active,Not Active,Not Active,Not Active,Not Active,–,–,–,–,–,–
c1ccc2c(c1)c1cccc3ccc4cccc2c4c31 [BENZO[E]PYRENE],Not Active,Not Active,Not Active,Not Active,Not Active,Not Active,Not Active,Not Active,Not Active,Not Active,–,–,–,–,–,–
CNCCc1ccccn1 [BETAHISTINE],Not Active,Not Active,Not Active,Not Active,Not Active,Not Active,Not Active,Not Active,Not Active,Not Active,–,–,–,–,–,–
CC(C)C(Br)C(=O)NC(N)=O (stereo unspecified) [BROMISOVALUM],Not Active,Not Active,Not Active,Not Active,Not Active,Not Active,Not Active,Not Active,Not Active,Not Active,–,–,–,–,–,–
CCCC1O[C@@H]2C[C@H]3[C@@H]4CCC5=CC(=O)C=C[C@]5(C)[C@H]4[C@@H](O)C[C@]3(C)[C@]2(C(=O)CO)O1 (stereo partly specified) [BUDESONIDE],Not Active,Not Active,Not Active,Not Active,Not Active,Not Active,Not Active,Not Active,Not Active,Not Active,–,–,–,–,–,–
CC(NC(C)(C)C)C(=O)c1cccc(Cl)c1 (stereo unspecified) [BUPROPION],Not Active,Not Active,Not Active,Not Active,Not Active,Not Active,Not Active,Not Active,Not Active,Not Active,–,–,–,–,–,–
CN(Cc1ccc(C(C)(C)C)cc1)Cc1cccc2ccccc12 [BUTENAFINE],Not Active,Not Active,Not Active,Not Active,Not Active,Not Active,Not Active,–,Not Active,Not Active,–,–,–,–,3.91 µM,3.88 µM
C[C@H](CS)C(=O)N1CCC[C@H]1C(=O)O [CAPTOPRIL],Not Active,Not Active,Not Active,Not Active,Not Active,Not Active,Not Active,Not Active,Not Active,Not Active,–,–,–,–,–,–
Cc1ccc(-c2cc(C(F)(F)F)nn2-c2ccc(S(N)(=O)=O)cc2)cc1 [CELECOXIB],Not Active,Not Active,Not Active,Not Active,Not Active,Not Active,Not Active,–,Not Active,Not Active,–,–,–,–,7.31 µM,7.25 µM
O=C(O)CCCc1ccc(N(CCCl)CCCl)cc1 [CHLORAMBUCIL],Not Active,Not Active,Not Active,Not Active,Not Active,Not Active,Not Active,Not Active,Not Active,Not Active,–,–,–,–,–,–
C[C@H](CCC(=O)O)[C@H]1CC[C@H]2[C@@H]3[C@H](O)C[C@@H]4C[C@H](O)CC[C@]4(C)[C@H]3C[C@H](O)[C@]12C [CHOLIC ACID],Not Active,Not Active,Not Active,Not Active,Not Active,Not Active,Not Active,Not Active,Not Active,Not Active,–,–,–,–,–,–
Cc1cc(C2CCCCC2)n(O)c(=O)c1 [CICLOPIROX],Not Active,Not Active,Not Active,Not Active,Not Active,Not Active,Not Active,Not Active,Not Active,Not Active,–,–,–,–,–,–
CC1=C2C(=CO[C@H](C)[C@H]2C)C(O)=C(C(=O)O)C1=O [CITRININ],Not Active,Not Active,Not Active,Not Active,Not Active,Not Active,Not Active,Not Active,Not Active,Not Active,–,–,–,–,–,–
